Measurements as given in patent publication US11110138B2 (priority 2012, dated 2021).

Experiment: in vitro
Conditions: African green monkey

CS(=O)(=O)OCCCCOS(C)(=O)=O [busulfan]
viability: ~82%
